Key:
OVA sensitized mice [1] = experiment: Allergic rhinitis mouse model, intranasal administration; type: in vivo
Experimental: In a mouse model of allergic rhinitis, animals were sensitized intraperitoneally with alum-precipitated OVA on days 1, 5, 10 and 15. OVA diluted with saline was administered intranasally (25 μL of 500 μg OVA in each nare) daily, on days 18-22, 25-29, and 32-35. ISIS 231894 and budesonide were administered intranasally, with budesonide administration one hour before each intranasal OVA challenge. ISIS 231894 was administered on days 11, 13, 15, and one hour before each intranasal OVA challenge. Endpoints were evaluated on day 36 and included nasal mucus accumulation (nasal histopathology) nasal eosinophilia, neutrophilia (by nasal lavage analysis and microscopic eosinophil counts in epithelial tissue) and allergic symptoms (numbers of sneezes and nose-rubs observed over a fixed time period).

IL-4R alpha protein [2] = experiment: IL-4R alpha protein in lung cells by flow cytometry, acute model; type: in vivo, mouse
Experimental: Dendritic cells, eosinophils, macrophages and epithelial cells recovered from collagenase digested lung were analyzed for expression of IL-4R alpha protein by flow cytometry. […] A second experiment, in which mice were dosed with 10 μg/kg ISIS 231894, confirmed the efficacy of ISIS 231894 to decrease AHR and eosinophilia in the acute model.

OVA sensitized mice [3] = experiment: Mouse model of allergic inflammation, rechallenge model (AHR/Penh, BAL eosinophils, cytokines); type: in vivo
Experimental: (§1) In the mouse model of allergic inflammation, mice are sensitized and challenged with aerosolized chicken ovalbumin (OVA). Airway responsiveness is assessed by inducing airflow obstruction using a noninvasive method whereby unrestrained conscious OVA sensitized mice are placed into the main chamber of a plethysmograph (Buxco Electronics, Inc. Troy, N.Y.) and challenged with aerosolized methacholine. Pressure difference between this chamber and a reference chamber is used to extrapolate minute volume, breathing frequency and enhanced pause (Penh). Penh is a dimensionless parameter that is a function of total pulmonary airflow (i.e. the sum of the airflow in the upper and lower respiratory tracts) during the respiratory cycle of a mouse and is […] when airflow is greater. This parameter closely correlates with lung resistance as measured by traditional, invasive techniques using ventilated animals (Hamelmann et al., 1997, Am. J. Respir. Crit. Care Med. 156:766-775).
(§2) The rechallenge model of allergic inflammation includes a second series of nebulized OVA challenges on days 66 and 67 in addition to the sensitization and challenge steps of the acute model. This model allows for the evaluation of the target's role in a recall response, as opposed to its role as an initiator molecule. In the rechallenge model, mice were treated with 10, 100 or 500 μg/kg of either ISIS 231894 or the mismatch control oligonucleotide on days 52, 54, 56, 59 and 61, subsequent to the onset and resolution of the OVA-induced acute inflammatory response, delivered by nose only inhalation. The study endpoints were similar to those in the acute model, and included Penh response (i.e. AHR reduction), inflammatory cells and cytokines in BAL (determined by ELISA), mucus accumulation (as determined by periodic acid-Schiff base [PAS] staining in lungs), lung histology and IL-4R alpha protein reduction in lung epithelial and inflammatory cells (as determined by flow cytometry). The results are shown below in Tables 5 and 6.

OVA sensitized mice [4] = experiment: Mouse model of allergic inflammation, chronic model (Penh, BAL cells, cytokines); type: in vivo; settings: for % Eosinophils (BAL) / % Neutrophils (BAL): day 76
Experimental: as §1
In the chronic model of allergic inflammation, mice are subjected to repeated intranasal OVA administration, producing a chronic inflammatory response. In this model, mice were sensitized by intraperitoneal injection with 100 μg of OVA on days 0 and 14 as in the previous models. OVA was administered at a dose of 500 μg on days 14, 27, 28, 29, 47, 61, 73, 74 and 75. Oligonucleotide, either ISIS 231894 or the mismatch control, was administered via the nose-only aerosol delivery exposure system at a dose of either 5 μg/kg or 500 μg/kg on days 31, 38, 45, 52, 59, 66 and 73. Dexamethasone, an anti-inflammatory agent, was administered by intraperitoneal injection at 2.5 mg/kg on days 47, 62, 73, 74 and 75. Analysis of endpoints was performed on day 76, except cytokines which were evaluated on day 62, 6 hours post OVA challenge. Endpoints were similar to those in the acute and rechallenge model, and included Penh (AHR), BAL inflammatory cell accumulation and cytokines and mucus accumulation.

IL-4R alpha protein [5] = experiment: IL-4R alpha protein on lung cells by flow cytometry, rechallenge model; type: in vivo, mouse
Experimental: as §2

[6] = Lung concentration, lung half life and tolerability of inhaled oligonucleotide in mice
[7] = Table 11, 0.01 mg/kg intranasal

## ISIS 231894: lead antisense oligonucleotide targeted to mouse IL-4R alpha; CCGCTGTTCTCAGGTGACAT; SEQ ID NO: 24; 2'-MOE gapmer, phosphorothioate (all phosphorothioate, sugars by position and methylation of C not given here; 2'-MOE gapmer)
OVA sensitized mice [1]; [7]
  % Nasal lavage eosinophils: 12%
  % Nasal lavage neutrophils: 16%
  Nasal rubs: 0.8 per 5 min
  Sneezes: 2.5 per 5 min
  Tissue eosinophils: 438 per mm^2
OVA sensitized mice [1]; Table 11, 0.1 mg/kg intranasal
  % Nasal lavage eosinophils: 2%
  % Nasal lavage neutrophils: 5%
  Nasal rubs: 0.3 per 5 min
  Sneezes: 1.9 per 5 min
  Tissue eosinophils: 240 per mm^2
OVA sensitized mice [1]; Table 11, 1 mg/kg intranasal
  % Nasal lavage eosinophils: 5%
  % Nasal lavage neutrophils: 13%
  Nasal rubs: 0.5 per 5 min
  Sneezes: 1.0 per 5 min
  Tissue eosinophils: 101 per mm^2
OVA sensitized mice [1]; Table 11, 10 mg/kg intranasal
  % Nasal lavage eosinophils: 9%
  % Nasal lavage neutrophils: 14%
  Nasal rubs: 1.1 per 5 min
  Sneezes: 4.8 per 5 min
  Tissue eosinophils: 298 per mm^2
OVA sensitized mice [1]; allergic rhinitis model, intranasal, alone and in combination
  nasal eosinophilia, neutrophilia and allergic symptoms (sneezes and nose rubs), in words: reduce nasal eosinophilia, neutrophilia and allergic symptoms
IL-4R alpha protein [2]
  IL-4R alpha protein in dendritic, epithelial and mixed eosinophil/macrophage lung cells, in words: significant reduction
OVA sensitized mice [3]
  percentage of eosinophils in BAL fluid vs mismatch control, in words: significantly reduced
OVA sensitized mice [3]; 10 μg and 100 μg doses
  lung IL-5 mRNA, in words: inhibited
OVA sensitized mice [3]; 10 μg/kg inhaled
  % Eosinophils (BAL): 22%
  Penh (100 mg/mL methacholine): 3
OVA sensitized mice [3]; 100 μg/kg inhaled
  % Eosinophils (BAL): 18%
  Penh (100 mg/mL methacholine): 3.5
OVA sensitized mice [3]; 500 μg/kg inhaled
  % Eosinophils (BAL): 15%
  Penh (100 mg/mL methacholine): 3.5
OVA sensitized mice [3]; all three doses (10, 100, 500 μg/kg)
  methacholine-induced AHR (Penh) vs vehicle control, in words: significant reduction
OVA sensitized mice [3]; doses of 100 μg and 500 μg, ELISA
  cytokines KC, MCP-1, IL-5 and IL-13 in BAL fluid vs vehicle control, in words: significantly reduced expression
OVA sensitized mice [4]; 5 μg/kg inhaled
  % Eosinophils (BAL): 45%
  % Neutrophils (BAL): 38%
OVA sensitized mice [4]; 500 μg/kg inhaled
  % Eosinophils (BAL): 29%
  % Neutrophils (BAL): 35%
OVA sensitized mice [4]; ISIS 231894 500 μg/kg, dexamethasone 2.5 mg/kg ip
  percent of eosinophils in BAL fluid vs vehicle control, in words: significant decrease
OVA sensitized mice [4]; ISIS 231894 each dose (5, 500 μg/kg), dexamethasone 2.5 mg/kg ip
  methacholine-induced AHR (Penh) vs vehicle, in words: significant decrease
OVA sensitized mice [4]; both doses of ISIS 231894, dexamethasone 2.5 mg/kg ip
  percent neutrophils in BAL, in words: significantly reduced
OVA sensitized mice [4]; day 62, ISIS 231894 500 μg/kg, dexamethasone 2.5 mg/kg ip
  IL-5 and KC in BAL fluid vs vehicle, in words: significant reduction
IL-4R alpha protein [5]; 10 μg/kg inhaled
  target protein (IL-4R alpha), Dendritic cells: 25 % positive cells
  target protein (IL-4R alpha), Macrophages/Eosinophils: 18 % positive cells
IL-4R alpha protein [5]; 100 μg/kg inhaled
  target protein (IL-4R alpha), Dendritic cells: 18 % positive cells
  target protein (IL-4R alpha), Macrophages/Eosinophils: 20 % positive cells
IL-4R alpha protein [5]; 500 μg/kg inhaled
  target protein (IL-4R alpha), Dendritic cells: 10 % positive cells
  target protein (IL-4R alpha), Macrophages/Eosinophils: 17 % positive cells
IL-4R alpha protein [5]; flow cytometry
  IL-4R alpha surface expression on lung eosinophils, macrophages and dendritic cells, in words: reduced the amount of IL-4R alpha surface expression
[6]; mice with well established allergen-induced pulmonary inflammation
  effect of once weekly dosing on AHR and airway inflammation, in words: reduced AHR and airway inflammation
[6]; mice, doses up to 1 mg/kg
  tolerability of intrapulmonary aerosol doses: well-tolerated

Reference: patent publication US20100056606A1, “Combination therapy using budesonide and antisense oligonucleotide targeted to IL4-receptor alpha” (ISIS Pharmaceuticals, Inc., priority 2005, published 2010)
